From ChEMBL document CHEMBL1201862, “PubChem BioAssay data set” (2004)
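Grown in 96-well plates, cells were treated for 48 hours with each compound at five concentrations. Insufficient inhibition: endpoint recorded as highest concentration tested. GI50: concentration for 50% inhibition of growth.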 Calls of active or inactive are those of the source. Rule as the data show it: active = GI50 up to about 1.1 µM and inactive = higher.

Tests used:
Experiment in all cases: NCI tumour cell line growth inhibition, 48 h
[1] = test system: A549
[2] = test system: COLO 205
[3] = test system: HL-60
[4] = test system: HOP-92
[5] = test system: HT-29
[6] = test system: IGROV-1
[7] = test system: M14
[8] = test system: Malme-3M
[9] = test system: RXF 393
[10] = test system: SF-539
[11] = test system: SK-MEL-2
[12] = test system: SK-OV-3
[13] = test system: SN12C
[14] = test system: SNB-75
[15] = test system: SR
[16] = test system: UO-31
[17] = test system: MCF7
[18] = test system: MDA-N
[19] = test system: PC-3

| SMILES | GI50 [1] | GI50 [2] | GI50 [3] | GI50 [4] | GI50 [5] | GI50 [6] | GI50 [7] | GI50 [8] | GI50 [9] | GI50 [10] | GI50 [11] | GI50 [12] | GI50 [13] | GI50 [14] | GI50 [15] | GI50 [16] | GI50 [17] | GI50 [18] | GI50 [19] |
| --- | --- | --- | --- | --- | --- | --- | --- | --- | --- | --- | --- | --- | --- | --- | --- | --- | --- | --- | --- |
| CC1(C)C=N[N+]2(C)C3C=CC(CC3)C12 (stereo not given) | > 100 µM (inactive) | > 100 µM (inactive) | > 100 µM (inactive) | > 100 µM (inactive) | > 100 µM (inactive) | > 100 µM (inactive) | > 100 µM (inactive) | > 100 µM (inactive) | > 100 µM (inactive) | > 100 µM (inactive) | > 100 µM (inactive) | > 100 µM (inactive) | > 100 µM (inactive) | > 100 µM (inactive) | > 100 µM (inactive) | > 100 µM (inactive) | – | – | – |
| CNc1ccc([S+]([O-])Nc2ccccc2)cc1 (stereo not given) | 45.6 µM (inactive) | 26.4 µM (inactive) | 26.1 µM (inactive) | – | 97.7 µM (inactive) | 41.6 µM (inactive) | – | 53.2 µM (inactive) | – | > 100 µM (inactive) | 86.3 µM (inactive) | – | > 100 µM (inactive) | – | 38.2 µM (inactive) | 23.9 µM (inactive) | 56 µM (inactive) | 46.1 µM (inactive) | – |
| O=C1O/C(=C(/Cl)c2c3ccccc3cc3ccccc23)c2ccccc21 | 37.1 µM (inactive) | 23.2 µM (inactive) | 4.1 µM (inactive) | 21.8 µM (inactive) | 13.1 µM (inactive) | 22.5 µM (inactive) | 21.4 µM (inactive) | 48.1 µM (inactive) | 33.3 µM (inactive) | 23.6 µM (inactive) | 15.8 µM (inactive) | 69.5 µM (inactive) | 26.1 µM (inactive) | 4.75 µM (inactive) | 4.58 µM (inactive) | 44.2 µM (inactive) | 32.1 µM (inactive) | 27.4 µM (inactive) | 24.8 µM (inactive) |
| O=c1[nH]nc(Cc2ccccc2)n1C1CC1 | > 100 µM (inactive) | > 100 µM (inactive) | > 100 µM (inactive) | > 100 µM (inactive) | > 100 µM (inactive) | > 100 µM (inactive) | > 100 µM (inactive) | > 100 µM (inactive) | > 100 µM (inactive) | > 100 µM (inactive) | – | > 100 µM (inactive) | > 100 µM (inactive) | > 100 µM (inactive) | > 100 µM (inactive) | 61.7 µM (inactive) | > 100 µM (inactive) | > 100 µM (inactive) | > 100 µM (inactive) |
| CSc1nc(NC2OC(COC(C)=O)C(OC(C)=O)C(OC(C)=O)C2OC(C)=O)c(/N=C/C=N/c2c(NC3OC(COC(C)=O)C(OC(C)=O)C(OC(C)=O)C3OC(C)=O)nc(SC)[nH]c2=O)c(=O)[nH]1 (stereo not given) | > 100 µM (inactive) | > 100 µM (inactive) | > 100 µM (inactive) | > 100 µM (inactive) | > 100 µM (inactive) | > 100 µM (inactive) | > 100 µM (inactive) | > 100 µM (inactive) | > 100 µM (inactive) | > 100 µM (inactive) | > 100 µM (inactive) | > 100 µM (inactive) | > 100 µM (inactive) | > 100 µM (inactive) | > 100 µM (inactive) | > 100 µM (inactive) | – | – | – |
| COc1c(C)c2c(c(O)c1C/C=C(\C)CCC(=O)O)C(=O)OC2 [MYCOPHENOLIC ACID] | 0.659 µM (active) | 1.08 µM (active) | 1.43 µM (inactive) | 4.68 µM (inactive) | 0.867 µM (active) | 1.18 µM (inactive) | 1.58 µM (inactive) | – | 2.78 µM (inactive) | 1.46 µM (inactive) | > 51.4 µM (inactive) | 1.43 µM (inactive) | 4.1 µM (inactive) | 6.81 µM (inactive) | 0.446 µM (active) | 3.1 µM (inactive) | 0.376 µM (active) | 1.46 µM (inactive) | 1.1 µM (active) |
